Data on ten compounds can be found in publication PMC9078697, “Discovery and preliminary SAR of 14-aryloxy-andrographolide derivatives as antibacterial agents with immunosuppressant activity” (RSC Advances, 2018).

Holding throughout (type): cell-based
The subject of one test is S. aureus. Put plainly: Bacteriostatic screening (growth, OD630) against S. aureus. The following applies: for inhibition rate (%) SA: at 250 μM of the tested compound. The procedure:
(§1) The strategy in this study was to submit these synthesized compounds to a preliminary screening test against E. coli, S. aureus and E. faecalis (ciprofloxacin was used as a reference compound; see Table 1). […] The tested compound or ciprofloxacin (positive drug) was dissolved in DMSO and diluted with LB liquid medium into a stock solution containing 20% DMSO before use; the stock solution of the carrier was 20% DMSO in LB liquid medium. All the experiments, including blank controls, were performed in triplicate. Bacteriostatic screening was performed by applying a modified protocol of the National Committee on Clinical Laboratory Standards (NCCLS).[29] Briefly, E. coli, S. aureus and E. faecalis cells (American Type Culture Collection, ATCC) were grown in LB plate medium for one passage, then seeded in LB liquid medium and cultured at 37 °C for 12 h. After being diluted 1000 times, 190 μL diluted cells were aliquoted to 96-well plates; then, 10 μL stock solution of carrier or a gradient amount of the tested compound or the positive compound, ciprofloxacin, were added; the final concentration of DMSO was 1% in all wells. The blank controls contained 1% DMSO and LB medium but no bacterial cells.

In a further test the test system is E. coli. Briefly: Bacteriostatic screening (growth, OD630) against E. coli. The following applies: for inhibition rate (%) EC: at 250 μM of the tested compound; for inhibition rate EC (symbol /): at 250 μM of tested compound. The procedure:
as §1

The test system of a further test is E. faecalis. Put plainly: Bacteriostatic screening (growth, OD630) against E. faecalis. The following applies: for IC50: 24 h, IC50 generated when inhibition at 250 μM was higher than 80%; for inhibition rate (%) EF: at 250 μM of the tested compound. The procedure:
as §1

The IC50 is the concentration at which inhibition is half-maximal. Lower therefore signals greater potency. `C=C1CCC2C(C)(CO)C(O)CCC2(C)C1CC=C1C(=O)OCC1Oc1ccccc1OC` (stereo not drawn) [6b12, (14β)-(2′-Methoxy)phenoxy-andrographolide]: the “inhibition rate (%) SA” value in the test on S. aureus (250 µM) was “(13) %”. In the test on E. coli, the “inhibition rate (%) EC” value was “(12) %”. Further, the midpoint of inhibition in the test with E. faecalis, the IC50, lay at 20.8 ± 4.5 µM.
In the case of `C=C1CCC2C3(C)COC(C)(C)OC3CCC2(C)C1CC=C1C(=O)OCC1Oc1ccnc2ccccc12` (stereo not drawn) [5a16, (14α)-(Quinolyl-4′-oxy)-3,19-acetonylidene andrographolide], the “inhibition rate (%) SA” value in the test with S. aureus was “(14) %”. For the same compound, the “inhibition rate EC (symbol /)” value in the test on E. coli is “/ (“/”represents no inhibition or lower than 10% inhibition rate at 250 μM of tested compound)”. This compound came in with an IC50 with E. faecalis of 16.9 ± 5.9 µM.
Consider `C=C1CCC2C(C)(CO)C(O)CCC2(C)C1CC=C1C(=O)OCC1Oc1cccc([N+](=O)[O-])c1` (stereo not drawn) [6b7, (14β)-(3′-Nitro)phenoxy-andrographolide], for which the “inhibition rate (%) SA” value in the test on S. aureus was found to be 26%. Also, the “inhibition rate EC (symbol /)” value with E. coli was “/ (“/”represents no inhibition or lower than 10% inhibition rate at 250 μM of tested compound)”. Besides, 17.8 ± 4.2 µM corresponded to half-maximal inhibition with E. faecalis (IC50).
For `C=C1CCC2C(C)(CO)C(O)CCC2(C)C1CC=C1C(=O)OCC1Oc1ccc([N+](=O)[O-])c(OC)c1` (stereo not drawn) [6b5, (14β)-(3′-Methoxy-4′-nitro)phenoxy-andrographolide], the “inhibition rate (%) SA” value with S. aureus (250 µM) is “(37) %”. Further, the “inhibition rate (%) EC” value in the test with E. coli (250 µM) is reported as “(23) %”. This compound also returned an IC50 in the test with E. faecalis of 21.8 ± 2.5 µM.
Regarding `C=C1CCC2C(C)(CO)C(O)CCC2(C)C1CC=C1C(=O)OCC1Oc1ccnc2ccccc12` (stereo not drawn) [6b16, (14β)-(Quinolyl-4′-oxy)andrographolide], the “inhibition rate SA (symbol /)” value in the test with S. aureus (at 250 μM of tested compound) is given as “/ (“/”represents no inhibition or lower than 10% inhibition rate at 250 μM of tested compound)”. Besides, the “inhibition rate EC (symbol /)” value in the test on E. coli was “/ (“/”represents no inhibition or lower than 10% inhibition rate at 250 μM of tested compound)”. In the test on E. faecalis, this compound had an IC50 of 58.5 ± 4.2 µM.
Turning to “(14β)-(3′-Fluoro-4′-nitro)phenoxy-3,19-acetonylidene andrographolide [5b4]”, the “inhibition rate (%) SA” value with S. aureus was “(15) %”. The “inhibition rate (%) EC” value with E. coli is reported as “(19) %”. Further, the “inhibition rate (%) EF” value in the test on E. faecalis was “(73) %”.
For the compound “(14α)-(2′-Carboxy ethyl ester-4′-nitro)phenoxy-andrographolide [6a1]”, the “inhibition rate (%) SA” value in the test on S. aureus is reported as “(10) %”. For the same compound, the “inhibition rate EC (symbol /)” value with E. coli is “/ (“/”represents no inhibition or lower than 10% inhibition rate at 250 μM of tested compound)”. Besides, the half-maximal inhibitory concentration (IC50) with E. faecalis stood at 72.2 ± 9.2 µM.
As for `C=C1CCC2C3(C)COC(C)(C)OC3CCC2(C)C1CC=C1C(=O)OCC1Oc1ccc([N+](=O)[O-])c(OC)c1` (stereo not drawn) [5a5, (14α)-(3′-Methoxy-4′-nitro)phenoxy-3,19-acetonylidene andrographolide], in the test on S. aureus (250 µM), the “inhibition rate (%) SA” value is given as “(10) %”. Besides, the “inhibition rate (%) EC” value in the test on E. coli (250 µM) is reported as “(12) %”. For the same compound, in the test with E. faecalis (250 µM), the “inhibition rate (%) EF” value is reported as “(73) %”.
Regarding `C=C1CCC2C3(C)COC(C)(C)OC3CCC2(C)C1CC=C1C(=O)OCC1Oc1cccnc1[N+](=O)[O-]` (stereo not drawn) [5b15, (14β)-(2′-Nitro-pyridinyl-3′-oxy)-3,19-acetonylidene andrographolide], in the test with S. aureus (250 µM), the “inhibition rate (%) SA” value is “(33) %”. The “inhibition rate EC (symbol /)” value with E. coli was “/ (“/”represents no inhibition or lower than 10% inhibition rate at 250 μM of tested compound)”. In the test with E. faecalis, this compound had a half-inhibitory concentration (IC50) of 38.4 ± 3.4 µM.
Consider `C=C1CCC2C(C)(CO)C(O)CCC2(C)C1CC=C1C(=O)OCC1Oc1ccccc1[N+](=O)[O-]` (stereo not drawn) [6b6, (14β)-(2′-Nitro)phenoxy-andrographolide], for which the “inhibition rate (%) SA” value with S. aureus was “(12) %”. For the same compound, in the test on E. coli, the “inhibition rate (%) EC” value is on record as “(28) %”. Half-maximal inhibition in the test with E. faecalis (IC50) was put at 15.9 ± 9 µM.
